Test results taken from BindingDB's records for doi:10.1016/j.chembiol.2010.07.014 (Brandeis University, 2010).

Legend:
Assay in all cases: Inhibition Assay
Conditions in all cases: pH 8; 25 °C
[1] = biological target: T1, Inosine-5'-monophosphate dehydrogenase (Borreliella burgdorferi (strain ATCC 35210 / DSM 4680 / CIP 102532 / B31), UniProt P49058)
T1 sequence (P49058 whole entry): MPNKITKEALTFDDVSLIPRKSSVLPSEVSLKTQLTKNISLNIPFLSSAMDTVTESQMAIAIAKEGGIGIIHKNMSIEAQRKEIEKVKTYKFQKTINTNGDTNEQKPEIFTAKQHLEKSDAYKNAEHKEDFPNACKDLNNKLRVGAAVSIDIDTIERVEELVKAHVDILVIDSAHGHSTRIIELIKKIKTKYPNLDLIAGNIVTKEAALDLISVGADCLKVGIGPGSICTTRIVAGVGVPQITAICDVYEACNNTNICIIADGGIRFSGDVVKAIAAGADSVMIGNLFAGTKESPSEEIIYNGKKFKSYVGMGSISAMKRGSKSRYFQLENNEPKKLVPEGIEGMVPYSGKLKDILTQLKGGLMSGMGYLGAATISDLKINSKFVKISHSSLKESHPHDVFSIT
Text: (§1) Inhibition assay using inosine 5'-onophosphate dehydrogenase (IMPD).

[2] = biological target: T2, Inosine-5'-monophosphate dehydrogenase (Helicobacter pylori (strain G27), UniProt B5Z7J4)
T2 sequence (B5Z7J4 whole entry): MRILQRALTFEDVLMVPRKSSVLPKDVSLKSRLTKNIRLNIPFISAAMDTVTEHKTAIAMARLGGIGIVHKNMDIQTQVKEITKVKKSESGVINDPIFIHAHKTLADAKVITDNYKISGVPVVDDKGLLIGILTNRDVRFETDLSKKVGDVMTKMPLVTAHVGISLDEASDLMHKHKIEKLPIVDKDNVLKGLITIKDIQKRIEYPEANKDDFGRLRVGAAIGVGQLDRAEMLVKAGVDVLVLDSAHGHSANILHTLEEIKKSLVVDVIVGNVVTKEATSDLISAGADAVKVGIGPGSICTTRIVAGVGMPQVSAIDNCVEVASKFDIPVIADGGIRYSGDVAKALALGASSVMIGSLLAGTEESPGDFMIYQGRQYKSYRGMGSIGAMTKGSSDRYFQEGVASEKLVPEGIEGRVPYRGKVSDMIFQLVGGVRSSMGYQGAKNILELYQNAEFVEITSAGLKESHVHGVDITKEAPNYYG
Text: as §1

[3] = biological target: Inosine-5'-monophosphate dehydrogenase (Streptococcus pyogenes, UniProt P0C0H6)
Chain of Inosine-5'-monophosphate dehydrogenase (Streptococcus pyogenes, UniProt P0C0H6) (P0C0H6 whole entry): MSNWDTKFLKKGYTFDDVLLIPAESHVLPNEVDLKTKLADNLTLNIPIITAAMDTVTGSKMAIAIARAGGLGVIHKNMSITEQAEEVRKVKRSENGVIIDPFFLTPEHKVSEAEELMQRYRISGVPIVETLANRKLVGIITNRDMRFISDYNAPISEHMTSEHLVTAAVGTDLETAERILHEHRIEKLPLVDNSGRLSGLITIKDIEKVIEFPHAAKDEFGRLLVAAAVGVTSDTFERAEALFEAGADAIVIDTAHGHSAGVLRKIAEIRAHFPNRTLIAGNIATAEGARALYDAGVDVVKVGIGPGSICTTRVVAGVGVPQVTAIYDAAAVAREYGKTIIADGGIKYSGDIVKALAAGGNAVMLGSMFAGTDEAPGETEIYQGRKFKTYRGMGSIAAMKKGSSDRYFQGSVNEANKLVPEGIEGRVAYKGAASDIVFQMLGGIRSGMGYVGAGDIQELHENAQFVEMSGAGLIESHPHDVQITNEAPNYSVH
Text: as §1

[4] = biological target: T3, Inosine-5'-monophosphate dehydrogenase (Cryptosporidium parvum, UniProt Q8T6T2)
T3 sequence (Q8T6T2 whole entry): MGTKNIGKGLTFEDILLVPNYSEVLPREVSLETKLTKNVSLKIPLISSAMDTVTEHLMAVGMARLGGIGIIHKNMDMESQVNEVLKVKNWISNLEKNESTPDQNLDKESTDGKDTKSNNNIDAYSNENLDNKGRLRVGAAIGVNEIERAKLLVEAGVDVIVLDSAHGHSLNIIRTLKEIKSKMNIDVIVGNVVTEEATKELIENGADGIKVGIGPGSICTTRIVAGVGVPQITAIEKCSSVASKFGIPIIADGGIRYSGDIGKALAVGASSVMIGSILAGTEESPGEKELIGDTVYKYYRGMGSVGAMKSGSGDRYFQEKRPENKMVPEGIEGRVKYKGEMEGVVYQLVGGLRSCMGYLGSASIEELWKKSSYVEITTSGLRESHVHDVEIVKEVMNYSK
Text: as §1

| IC50 [1] [µM] | IC50 [2] [µM] | IC50 [3] [µM] | IC50 [4] [µM] | Structure (SMILES) |
| --- | --- | --- | --- | --- |
| 1.4 | 2.2 | 96 |  | CC(Oc1ccccc1)C(=O)Nc1ccc(Cl)cc1 (centres undefined) |
| 0.22 | 0.3 | 0.55 | 0.1 | Nc1ccc(C(=O)OCc2nc3cc4ccccc4cc3[nH]2)cc1 [1H-naphtho[2,3-d]imidazol-2-ylmethyl 4-aminobenzoate, Compound G] |
| 1.8 | 1.3 | 85 | 1.6 | COc1ccc(NC(=O)Cc2cccc3ccccc23)cc1 [N-(4-methoxyphenyl)-2-(naphthalen-1-yl)acetamide, Compound B] |
| 0.6 | 0.6 | 70 | 1.2 | COc1ccc(NC(=O)Cn2c(-c3cscn3)nc3ccccc32)cc1 [N-(4-methoxyphenyl)-2-[2-(1,3-thiazol-4-yl)-1H-1,3-benzodiazol-1-yl]acetamide, Compound C] |

Further lines, the compound ahead of its results:

| Structure (SMILES) | IC50 [1] [µM] | IC50 [2] [µM] | IC50 [3] [µM] | IC50 [4] [µM] |
| --- | --- | --- | --- | --- |
| Nc1ccc(C(=O)OCCCc2nc3cc4ccccc4cc3[nH]2)cc1 [3-{1H-naphtho[2,3-d]imidazol-2-yl}propyl 4-aminobenzoate, Compound H] | 0.9 | 1.2 | 0.86 | 0.9 |
| COc1ccc(NC(=O)Cc2nn(C)c(=O)c3ccccc23)cc1 [N-(4-methoxyphenyl)-2-(3-methyl-4-oxo-3,4-dihydrophthalazin-1-yl)acetamide, Compound D] | 1.7 | 3 | 49 | 5.4 |
| O=C(Cn1c(-c2ccccn2)nc2ccccc21)Nc1ccc2ccccc2c1 [N-(naphthalen-2-yl)-2-[2-(pyridin-2-yl)-1H-1,3-benzodiazol-1-yl]acetamide, Compound C91] |  | 0.0011 | 0.0054 | 0.008 |
| CCn1c(SCC(=O)Nc2ccc(OC)cc2)nc2ccsc2c1=O [l-4-oxo-3H,4H-thieno[3,2-d]pyrimidin-2-yl}sulfanyl)-N-(4-methoxyphenyl)acetamide, Compound F] | 0.8 | 1.1 | 13 | 1.4 |
| COC(=O)c1c(C)c(=O)[nH]c2ccccc12 [methyl 3-methyl-2-oxo-1,2-dihydroquinoline-4-carboxylate, Compound E] | 0.9 | 1.5 | 15 | 1.6 |
